Where two headings read alike, the source gives them in different places.
System: test plant species in Direct Seeded Rice
Assay: Postemergence herbicidal activity in direct seeded rice (Table 13)
Format: in vivo
Details: for GR50 BRAPP / GR80 BRAPP / GR50 CYPSS / GR80 CYPSS / GR50 ECHSS / GR80 ECHSS / GR50 LEFSS / GR80 LEFSS / GR20 ORYSS / GR50 SCPJU / GR80 SCPJU / GR50 SEBEX / GR80 SEBEX: probit analysis; for GR20 ORYSS: ORYSS: Oryza sativa (crop); for pest or weed control at 35 g/ha / pest or weed control at 70 g/ha: post-emergence, 504 h; for pest or weed control at 35 g/ha: 35 g ai/ha; for pest or weed control at 70 g/ha: 70 g ai/ha
Excerpt: Seeds or nutlets of the desired test plant species were planted in a soil matrix prepared by mixing a loam soil (43 percent silt, 19 percent clay, and 38 percent sand, with a pH of about 8.1 and an organic matter content of about 1.5 percent) and river sand in an 80 to 20 ratio. The soil matrix was contained in plastic pots with a surface area of 139.7 cm^2. When required to ensure good germination and healthy plants, a fungicide treatment and/or other chemical or physical treatment was applied. The plants were grown for 10-17 d in a greenhouse with an approximate 14-h photoperiod which was maintained at about 29° C. during the day and 26° C. during the night. Nutrients and water were added on a regular basis and supplemental lighting was provided with overhead metal halide 1000-Watt lamps as necessary. The plants were employed for testing when they reached the second or third true leaf stage. A weighed amount, determined by the highest rate to be tested, of each test compound was placed in 25 mL glass vials and dissolved in a volume of 97:3 v/v acetone-DMSO to obtain 12× stock solutions. […] The concentrated stock solutions were added to the spray solutions so that the final acetone and DMSO concentrations were 16.2% and 0.5%, respectively. Spray solutions were diluted to the appropriate final concentrations with the addition of 10 mL of an aqueous mixture of 1.5% (v/v) Agri-dex crop oil concentrate. […] Compound requirements are based upon a 12 mL application volume at a rate of 187 L/ha. Formulated compounds were applied to the plant material with an overhead Mandel track sprayer equipped with […] nozzles calibrated to deliver 187 L/ha over an application area of 0.503 square meters (m^2) at a spray height of 18 inches (43 cm) above average plant canopy height. Control plants were sprayed in the same manner with the solvent blank. The treated plants and control plants were placed in a greenhouse as described above and watered by sub-irrigation to prevent wash-off of the test compounds. After 20-22 days, the condition of the test plants, compared with that of the untreated plants, was determined visually and scored on a scale of 0 to 100 percent where 0 corresponds to no injury and 100 corresponds to complete kill. By applying the well-accepted probit analysis as described by J. Berkson in Journal of the American Statistical Society, 48, 565 (1953) and by D. Finney in “Probit Analysis” Cambridge University Press (1952), the above data can be used to calculate GR20, GR50, GR80 and GR90 values, which are defined as growth reduction factors that correspond to the effective dose of herbicide required to kill or control 20 percent, 50 percent, 80 percent or 90 percent, respectively, of a target plant.

[1] = BRAPP: broadleaf signalgrass, Brachiaria platyphylla
[2] = CYPSS: sedge (Cyperus difformis, esculentus, iria)
[3] = ECHSS: barnyardgrass (Echinochloa crus-galli), junglerice (Echinochloa colonum)
[4] = LEFSS: sprangletop (Leptochloa chinensis, Leptochloa dubia)
[5] = SCPJU: Japanese bulrush, Scirpus juncoides
[6] = SEBEX: hemp sesbania, Sesbania exaltata
[7] = BRAPP: broadleaf signalgrass, Brachiaria platyphylla, read-out: Visual Growth Reduction (%) 21 Days After Application BRAPP
[8] = CYPSS: sedge (Cyperus difformis, esculentus, iria), read-out: Visual Growth Reduction (%) 21 Days After Application CYPSS
[9] = ECHSS: barnyardgrass (Echinochloa crus-galli), junglerice (Echinochloa colonum), read-out: Visual Growth Reduction (%) 21 Days After Application ECHSS
[10] = LEFSS: sprangletop (Leptochloa chinensis, Leptochloa dubia), read-out: Visual Growth Reduction (%) 21 Days After Application LEFSS
[11] = ORYSS: Oryza sativa, read-out: Visual Growth Reduction (%) 21 Days After Application ORYSS
[12] = SCPJU: Japanese bulrush, Scirpus juncoides, read-out: Visual Growth Reduction (%) 21 Days After Application SCPJU
[13] = SEBEX: hemp sesbania, Sesbania exaltata, read-out: Visual Growth Reduction (%) 21 Days After Application SEBEX

COC(=O)c1nc(-c2ccc(Br)cc2F)cc(N)c1Cl [Compound 93]
GR50 BRAPP [1]: 1 g ai/ha
GR80 BRAPP [1]: 1 g ai/ha
GR50 CYPSS [2]: 1 g ai/ha
GR80 CYPSS [2]: 2 g ai/ha
GR50 ECHSS [3]: 1 g ai/ha
GR80 ECHSS [3]: 1 g ai/ha
GR50 LEFSS [4]: 6 g ai/ha
GR80 LEFSS [4]: 11 g ai/ha
GR20 ORYSS: 13 g ai/ha
GR50 SCPJU [5]: 1 g ai/ha
GR80 SCPJU [5]: 1 g ai/ha
GR50 SEBEX [6]: 1 g ai/ha
GR80 SEBEX [6]: 1 g ai/ha
pest or weed control at 35 g/ha [7]: 95 to 100%
pest or weed control at 70 g/ha [7]: 95 to 100%
pest or weed control at 35 g/ha [8]: 95 to 100%
pest or weed control at 70 g/ha [8]: 95 to 100%
pest or weed control at 35 g/ha [9]: 95 to 100%
pest or weed control at 70 g/ha [9]: 95 to 100%
pest or weed control at 35 g/ha [10]: 95 to 100%
pest or weed control at 70 g/ha [10]: 95 to 100%
pest or weed control at 35 g/ha [11]: 45 to 59%
pest or weed control at 70 g/ha [11]: 60 to 74%
pest or weed control at 35 g/ha [12]: 95 to 100%
pest or weed control at 70 g/ha [12]: 95 to 100%
pest or weed control at 35 g/ha [13]: 95 to 100%
pest or weed control at 70 g/ha [13]: 95 to 100%

COC(=O)c1nc(-c2ccc(I)cc2)c(Cl)c(N)c1Cl [Compound 96]
GR50 BRAPP [1]: 19 g ai/ha
GR80 BRAPP [1]: 58 g ai/ha
GR50 CYPSS [2]: 3 g ai/ha
GR80 CYPSS [2]: 6 g ai/ha
GR50 ECHSS [3]: 29 g ai/ha
GR80 ECHSS [3]: 84 g ai/ha
GR50 LEFSS [4]: 27 g ai/ha
GR80 LEFSS [4]: 58 g ai/ha
GR20 ORYSS: 130 g ai/ha
GR50 SCPJU [5]: 1 g ai/ha
GR80 SCPJU [5]: 1 g ai/ha
GR50 SEBEX [6]: 1 g ai/ha
GR80 SEBEX [6]: 1 g ai/ha
pest or weed control at 35 g/ha [7]: 60 to 74%
pest or weed control at 70 g/ha [7]: 85 to 94%
pest or weed control at 35 g/ha [8]: 95 to 100%
pest or weed control at 70 g/ha [8]: 95 to 100%
pest or weed control at 35 g/ha [9]: 45 to 59%
pest or weed control at 70 g/ha [9]: 85 to 94%
pest or weed control at 35 g/ha [10]: 85 to 94%
pest or weed control at 70 g/ha [10]: 75 to 84%
pest or weed control at 35 g/ha [11]: 0 to 29%
pest or weed control at 70 g/ha [11]: 0 to 29%
pest or weed control at 35 g/ha [12]: 95 to 100%
pest or weed control at 70 g/ha [12]: 95 to 100%
pest or weed control at 35 g/ha [13]: 95 to 100%
pest or weed control at 70 g/ha [13]: 95 to 100%

Nc1cc(-c2ccc(I)cc2F)nc(C(=O)O)c1Cl [Compound 124]
GR50 BRAPP [1]: 4 g ai/ha
GR80 BRAPP [1]: 8 g ai/ha
GR50 CYPSS [2]: 1 g ai/ha
GR80 CYPSS [2]: 1 g ai/ha
GR50 ECHSS [3]: 2 g ai/ha
GR80 ECHSS [3]: 6 g ai/ha
GR50 LEFSS [4]: 7 g ai/ha
GR80 LEFSS [4]: 16 g ai/ha
GR20 ORYSS: 1 g ai/ha
GR50 SCPJU [5]: 1 g ai/ha
GR80 SCPJU [5]: 1 g ai/ha
GR50 SEBEX [6]: 1 g ai/ha
GR80 SEBEX [6]: 1 g ai/ha
pest or weed control at 35 g/ha [7]: 95 to 100%
pest or weed control at 70 g/ha [7]: 95 to 100%
pest or weed control at 35 g/ha [8]: 95 to 100%
pest or weed control at 70 g/ha [8]: 95 to 100%
pest or weed control at 35 g/ha [9]: 95 to 100%
pest or weed control at 70 g/ha [9]: 95 to 100%
pest or weed control at 35 g/ha [10]: 95 to 100%
pest or weed control at 70 g/ha [10]: 95 to 100%
pest or weed control at 35 g/ha [11]: 60 to 74%
pest or weed control at 70 g/ha [11]: 85 to 94%
pest or weed control at 35 g/ha [12]: 95 to 100%
pest or weed control at 70 g/ha [12]: 95 to 100%
pest or weed control at 35 g/ha [13]: 95 to 100%
pest or weed control at 70 g/ha [13]: 95 to 100%

Nc1c(Cl)c(C(=O)O)nc(-c2ccc(Br)cc2)c1Cl [Compound 125]
GR50 BRAPP [1]: 46 g ai/ha
GR80 BRAPP [1]: >70 g ai/ha
GR50 CYPSS [2]: 4 g ai/ha
GR80 CYPSS [2]: 10 g ai/ha
GR50 ECHSS [3]: 40 g ai/ha
GR80 ECHSS [3]: >70 g ai/ha
GR50 LEFSS [4]: 43 g ai/ha
GR80 LEFSS [4]: >70 g ai/ha
GR20 ORYSS: 0 g ai/ha
GR50 SCPJU [5]: 1 g ai/ha
GR80 SCPJU [5]: 1 g ai/ha
GR50 SEBEX [6]: 1 g ai/ha
GR80 SEBEX [6]: 1 g ai/ha
pest or weed control at 35 g/ha [7]: 45 to 59%
pest or weed control at 70 g/ha [7]: 60 to 74%
pest or weed control at 35 g/ha [8]: 95 to 100%
pest or weed control at 70 g/ha [8]: 95 to 100%
pest or weed control at 35 g/ha [9]: 45 to 59%
pest or weed control at 70 g/ha [9]: 60 to 74%
pest or weed control at 35 g/ha [10]: 45 to 59%
pest or weed control at 70 g/ha [10]: 60 to 74%
pest or weed control at 35 g/ha [11]: 0 to 29%
pest or weed control at 70 g/ha [11]: 0 to 29%
pest or weed control at 35 g/ha [12]: 95 to 100%
pest or weed control at 70 g/ha [12]: 95 to 100%
pest or weed control at 35 g/ha [13]: 95 to 100%
pest or weed control at 70 g/ha [13]: 95 to 100%

Reference: patent US9113629B2, “4-amino-6-(4-substituted-phenyl)-picolinates and 6-amino-2-(4-substituted-phenyl)-pyrimidine-4-carboxylates and their use as herbicides” (DOW AGROSCIENCES LLC, priority 2013, dated 2015)
